Values of other authors, collected in article PMC12022903, “Evaluation of drug-drug interaction between Suraxavir Marboxil (GP681) and itraconazole, and assessment of the impact of gene polymorphism” (Frontiers in Pharmacology, 2025).

Legend:
[1] = set-up: method as in unpublished data; details: preclinical studies; ref unpublished data; cited from earlier work
influenza virus = system: influenza virus; set-up: method as in preclinical studies; details: ref preclinical studies; cited from earlier work
MDR1 = system: MDR1; set-up: method as in unpublished data; details: preclinical studies; ref unpublished data; cited from earlier work

Question: For `O=C1c2c(O)c(=O)ccn2N([C@@H]2c3ccccc3SCc3c2ccc(F)c3F)[C@@H]2COC3(CC3)CN12` [GP1707D07], which route of excretion [1] is on record?
Answer: Its route of excretion is “mainly excreted in feces”.

Question: What about the tissue distribution [1] of the same compound?
Answer: The tissue distribution was “widely distributed across various tissues”.

Question: And the “estimated clinically effective concentration (antiviral threshold)” value (influenza virus)?
Answer: The value was 6.87 ng/mL.

Question: What about the “inhibition of transport activity of MDR1” value (MDR1) of the same compound?
Answer: The value was “nor do they inhibit the transport activity”.
